Where a name gives a salt, the structure may show the parent alone.
Key:
[1] = target: T1, NLRP3 (Homo sapiens, UniProt Q96P20); experiment: THP-1 cells pyroptosis assay (LPS + nigericin, resazurin readout); format: cell-based; parameters: Seed THP-1 cells (25,000 cells/well) containing 1.0 μg/ml LPS in 40 μl of RPMI medium; host or cells: THP-1 cells, LPS-primed and nigericin-stimulated; conditions: NLRP3 inhibitory activity in THP-1 cells, 1.0 μg/ml LPS, 5 μM nigericin
Text: It is well established that the activation of NLRP3 leads to cell pyroptosis and this feature plays an important part in the manifestation of clinical disease (Yan-gang Liu et al., Cell Death & Disease, 2017, 8(2), e2579; Alexander Wree et al., Hepatology, 2014, 59(3), 898-910; Alex Baldwin et al., Journal of Medicinal Chemistry, 2016, 59(5), 1691-1710; Ema Ozaki et al., Journal of Inflammation Research, 2015, 8, 15-27; Zhen Xie & Gang Zhao, Neuroimmunology Neuroinflammation, 2014, 1(2), 60-65; Mattia Cocco et al., Journal of Medicinal Chemistry, 2014, 57(24), 10366-10382; T. Satoh et al., Cell Death & Disease, 2013, 4, e644). Therefore, it is anticipated that inhibitors of NLRP3 will block pyroptosis, as well as the release of pro-inflammatory cytokines (e.g. IL-1β) from the cell. THP-1 cells (ATCC # TIB-202) were grown in RPMI containing L-glutamine (Gibco #11835) supplemented with 1 mM sodium pyruvate (Sigma # S8636) and penicillin (100 units/ml)/streptomycin (0.1 mg/ml) (Sigma # P4333) in 10% Fetal Bovine Serum (FBS) (Sigma # F0804). The cells were routinely passaged and grown to confluency (˜10^6 cells/ml). On the day of the experiment, THP-1 cells were harvested and resuspended into RPMI medium (without FBS). The cells were then counted and viability (>90%) checked by Trypan blue (Sigma # T8154). Appropriate dilutions were made to give a concentration of 625,000 cells/ml. To this diluted cell solution was added LPS (Sigma # L4524) to give a […] Final Assay Concentration (FAC). 40 μl of the final preparation was aliquoted into each well of a 96-well plate. The plate thus prepared was used for compound screening. The following method step-by-step assay was followed for compound screening. • 1. Seed THP-1 cells (25,000 cells/well) containing 1.0 μg/ml LPS in 40 μl of RPMI medium (without FBS) in 96-well, black walled, clear bottom cell culture plates coated with poly-D-lysine (VWR #734-0317) • 2. Add 5 μl compound (8 points half-log dilution, with 10 μM top dose) or vehicle (DMSO 0.1% FAC) to the appropriate wells • 3. […] Add 5 μl nigericin (Sigma # N7143) (FAC 5 μM) to all wells • 5. […] At the end of the incubation period, spin plates at 300×g for 3 mins and remove supernatant • 7. Then add 50 μl of resazurin (Sigma # R7017) (FAC 100 μM resazurin in RPMI medium without FBS) and incubate plates for a further 1-2 hrs at 37° C. and 5% CO2 • 8. Plates were read in an Envision reader at Ex 560 nm and Em 590 nm • 9. IC50 data is fitted to a non-linear regression equation (log inhibitor vs response-variable slope 4-parameters) The results of the pyroptosis assay performed are summarised in Table 1 below as THP IC50.

[2] = target: T1, NLRP3; experiment: Human whole blood IL1β release assay (LPS + nigericin, AlphaLisa IL-1β); format: cell-based; parameters: Plate out 80 μl of whole blood containing 1βg/ml of LPS in 96-well, clear bottom cell culture plate; from tissue; host or cells: human whole blood from healthy donors, LPS-primed and nigericin-stimulated; conditions: NLRP3 inhibitory activity in human whole blood, IL-1β release, 10 μM nigericin, read-out: HWB IC50
Description: For systemic delivery, the ability to inhibit NLRP3 when the compounds are present within the bloodstream is of great importance. For this reason, the NLRP3 inhibitory activity of a number of compounds in human whole blood was investigated in accordance with the following protocol.
Human whole blood in Li-heparin tubes was obtained from healthy donors from a volunteer donor panel. • 1. Plate out 80 μl of whole blood containing 1βg/ml of LPS in 96-well, clear bottom cell culture plate (Corning #3585) • 2. Add 10 μl compound (8 points half-log dilution with 10 μM top dose) or vehicle (DMSO 0.1% FAC) to the appropriate wells • 3. Incubate for 3 hrs at 37° C., 5% CO2 • 4. Add 10 μl Nigericin (Sigma # N7143) (10 μM FAC) to all wells • 5. Incubate for 1 hr at 37° C., 5% CO2 • 6. At the end of the incubation period, spin plates at 300×g for 5 mins to pellet cells and remove 20 μl of supernatant and add to 96-well v-bottom plates for IL-1β analysis (note: these plates containing the supernatants can be stored at −80° C. to be analysed at a later date) • 7. IL-1β was measured according to the manufacturer protocol (Perkin Elmer-AlphaLisa IL-1 Kit AL220F-5000) • 8. IC50 data is fitted to a non-linear regression equation (log inhibitor vs response-variable slope 4-parameters)

T1 sequence (Q96P20 whole entry): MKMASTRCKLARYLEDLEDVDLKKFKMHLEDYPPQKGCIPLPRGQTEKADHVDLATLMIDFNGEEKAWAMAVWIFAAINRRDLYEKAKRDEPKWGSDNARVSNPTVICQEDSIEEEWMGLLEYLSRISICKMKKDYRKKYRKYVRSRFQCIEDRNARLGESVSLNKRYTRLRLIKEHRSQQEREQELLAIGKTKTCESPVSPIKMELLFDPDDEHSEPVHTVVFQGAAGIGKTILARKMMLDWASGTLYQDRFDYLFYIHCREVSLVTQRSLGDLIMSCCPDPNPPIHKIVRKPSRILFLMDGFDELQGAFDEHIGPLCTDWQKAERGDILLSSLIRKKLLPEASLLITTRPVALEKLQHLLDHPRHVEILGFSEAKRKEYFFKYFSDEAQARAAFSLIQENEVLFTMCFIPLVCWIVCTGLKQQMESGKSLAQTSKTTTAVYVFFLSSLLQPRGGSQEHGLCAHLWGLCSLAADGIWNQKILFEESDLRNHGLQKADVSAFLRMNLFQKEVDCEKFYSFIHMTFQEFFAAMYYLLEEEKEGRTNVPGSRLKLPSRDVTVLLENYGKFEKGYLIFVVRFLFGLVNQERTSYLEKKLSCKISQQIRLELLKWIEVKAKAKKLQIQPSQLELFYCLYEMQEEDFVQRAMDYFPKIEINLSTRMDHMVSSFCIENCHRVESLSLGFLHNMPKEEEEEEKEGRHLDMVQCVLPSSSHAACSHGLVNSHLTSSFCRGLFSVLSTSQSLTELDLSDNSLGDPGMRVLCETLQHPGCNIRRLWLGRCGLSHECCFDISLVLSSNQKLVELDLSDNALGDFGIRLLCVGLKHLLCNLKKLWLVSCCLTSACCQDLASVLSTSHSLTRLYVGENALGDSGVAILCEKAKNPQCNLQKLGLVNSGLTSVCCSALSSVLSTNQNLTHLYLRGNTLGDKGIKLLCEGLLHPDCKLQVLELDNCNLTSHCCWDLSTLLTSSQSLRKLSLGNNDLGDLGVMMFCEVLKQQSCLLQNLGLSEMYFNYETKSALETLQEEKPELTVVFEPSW

Structure (SMILES): COCCCS(=O)(=O)NC(=O)Nc1c(-c2ccnc(C#N)c2)cc(F)cc1C(C)C [Example 49, N-((2-(2-Cyanopyridin-4-yl)-4-fluoro-6-isopropylphenyl)carbamoyl)-3-methoxypropane-1-sulfonamide]
- IC50 [1]: 2000 to 10000 nM

Structure (SMILES): COc1cc(-c2cc(F)cc(C(C)C)c2NC(=O)NS(=O)(=O)Cc2cccnc2)ccn1 [Example 54, N-((4-Fluoro-2-isopropyl-6-(2-methoxypyridin-4-yl)phenyl)carbamoyl)-1-(pyridin-3-yl)methanesulfonamide]
- IC50 [1]: 2000 to 10000 nM

Structure (SMILES): COc1cc(-c2ccc3c(c2NC(=O)NS(=O)(=O)Cc2cccnc2)CCC3)ccn1 [Example 55, N-((5-(2-Methoxypyridin-4-yl)-2,3-dihydro-1H-inden-4-yl)carbamoyl)-1-(pyridin-3-yl)methanesulfonamide]
- IC50 [1]: 2000 to 10000 nM

Structure (SMILES): O=C(Nc1c(-c2ccncc2)cc(F)c2c1CCC2)NS(=O)(=O)Cc1cccnc1 [Example 56, N-((7-Fluoro-5-(pyridin-4-yl)-2,3-dihydro-1H-inden-4-yl)carbamoyl)-1-(pyridin-3-yl)methanesulfonamide]
- IC50 [1]: 2000 to 10000 nM

Structure (SMILES): CC(C)c1cc(F)cc(-c2ccnc(C#N)c2)c1NC(=O)NS(=O)(=O)CC1CCN(C)C1 (stereo not drawn) [Example 57, N-((2-(2-Cyanopyridin-4-yl)-4-fluoro-6-isopropylphenyl)carbamoyl)-1-(1-methylpyrrolidin-3-yl)methanesulfonamide]
- IC50 [1]: 2000 to 10000 nM

Structure (SMILES): CN1CCC(CS(=O)(=O)NC(=O)Nc2c(-c3ccncc3)cc(F)c3c2CCC3)C1 (stereo not drawn) [Example 60, N-((7-Fluoro-5-(pyridin-4-yl)-2,3-dihydro-1H-inden-4-yl)carbamoyl)-1-(1-methylpyrrolidin-3-yl)methanesulfonamide]
- IC50 [1]: 2000 to 10000 nM

Structure (SMILES): CCN(C(C)=O)C1CCC(S(=O)(=O)NC(=O)Nc2c3c(cc4c2CCC4)CCC3)CC1 (stereo not drawn) [Example 63, N-ethyl-N-(4-(N-((1,2,3,5,6,7-hexahydro-s-indacen-4-yl)carbamoyl)sulfamoyl)cyclohexyl)acetamide]
- IC50 [1]: 2000 to 10000 nM

Structure (SMILES): O=C(Nc1c2c(cc3c1CCC3)CCC2)NS(=O)(=O)CC1CCN(C2COC2)C1 (stereo not drawn) [Example 64, N-((1,2,3,5,6,7-Hexahydro-s-indacen-4-yl)carbamoyl)-1-(1-(oxetan-3-yl)pyrrolidin-3-yl)methanesulfonamide, Potassium Salt]
- IC50 [1]: 2000 to 10000 nM

Structure (SMILES): NCCCS(=O)(=O)NC(=O)Nc1c2c(cc3c1CCC3)CCC2 [Example 65, 3-Amino-N-((1,2,3,5,6,7-hexahydro-s-indacen-4-yl)carbamoyl) propane-1-sulfonamide potassium salt]
- IC50 [1]: 2000 to 10000 nM

Structure (SMILES): C[N+](C)(C)CCCS(=O)(=O)NC(=O)Nc1c2c(cc3c1CCC3)CCC2 [Example 66, 3-(N-((1,2,3,5,6,7-Hexahydro-s-indacen-4-yl)carbamoyl)sulfamoyl)-N,N,N-trimethylpropan-1-aminium, Potassium Salt]
- IC50 [1]: 2000 to 10000 nM

Structure (SMILES): CC(C)N1CC2(COC(CS(=O)(=O)NC(=O)Nc3c4c(cc5c3CCC5)CCC4)C2)C1 (stereo not drawn) [Example 77, N-((1,2,3,5,6,7-Hexahydro-s-indacen-4-yl)carbamoyl)-1-(2-isopropyl-6-oxa-2-azaspiro[3.4]octan-7-yl)methanesulfonamide, Potassium Salt]
- IC50 [1]: 2000 to 10000 nM
- IC50 [2]: ≤ 7500 nM

Structure (SMILES): CN(C)CCCCS(=O)(=O)NC(=O)Nc1c2c(cc3c1CCC3)CCC2 [Example 82, 4-(Dimethylamino)-N-((1,2,3,5,6,7-hexahydro-s-indacen-4-yl)carbamoyl)butane-1-sulfonamide]
- IC50 [1]: 1600 to 2000 nM
- IC50 [2]: ≤ 5000 nM

Structure (SMILES): CC1(C)C2CC[C@@]1(CS(=O)(=O)NC(=O)Nc1c3c(cc4c1CCC4)CCC3)C(N)C2 (stereo partly drawn) [Example 85, 1-((1S)-2-Amino-7,7-dimethylbicyclo[2.2.1]heptan-1-yl)-N-((1,2,3,5,6,7-hexahydro-s-indacen-4-yl)carbamoyl)methanesulfonamide]
- IC50 [1]: 2000 to 10000 nM

Structure (SMILES): O=C(Nc1c2c(cc3c1CCC3)CCC2)NS(=O)(=O)CCCCN1CCC1 [Example 86, 4-(Azetidin-1-yl)-N-((1,2,3,5,6,7-hexahydro-s-indacen-4-yl)carbamoyl)butane-1-sulfonamide]
- IC50 [1]: 2000 to 10000 nM

Structure (SMILES): O=C(Nc1c2c(cc3c1CCC3)CCC2)NS(=O)(=O)C1(CN2CCC2)CC1 [Example 87, 1-(Azetidin-1-ylmethyl)-N-((1,2,3,5,6,7-hexahydro-s-indacen-4-yl)carbamoyl)cyclopropane-1-sulfonamide]
- IC50 [1]: 1600 to 2000 nM

Structure (SMILES): COCCC(=O)N(C)CCCS(=O)(=O)NC(=O)Nc1c2c(cc3c1CCC3)CCC2 [Example 94, N-(3-(N-((1,2,3,5,6,7-Hexahydro-s-indacen-4-yl)carbamoyl)sulfamoyl)propyl)-3-methoxy-N-methylpropanamide]
- IC50 [1]: 1600 to 2000 nM

Structure (SMILES): CC(C)c1cc(F)cc(C(C)C)c1NC(=O)NS(=O)(=O)CCCN(C)C [Example 101, 3-(Dimethylamino)-N-((4-fluoro-2,6-diisopropylphenyl)carbamoyl)propane-1-sulfonamide]
- IC50 [1]: 2000 to 10000 nM

Structure (SMILES): CC(C)c1cc(Cl)cc(C(C)C)c1NC(=O)NS(=O)(=O)CCCN(C)C [Example 108, 3-(Dimethylamino)-N-((4-chloro-2,6-diisopropylphenyl)carbamoyl)propane-1-sulfonamide]
- IC50 [1]: 2000 to 10000 nM

Structure (SMILES): CC(C)c1cc(F)cc(-c2ccnc(C#N)c2)c1NC(=O)NS(=O)(=O)Cc1cccnc1 [Example 112, N-((2-(2-Cyanopyridin-4-yl)-4-fluoro-6-isopropylphenyl)carbamoyl)-1-(pyridin-3-yl)methanesulfonamide]
- IC50 [1]: 2000 to 10000 nM

From patent publication US20200331850A1, “NOVEL SULFONAMIDE CARBOXAMIDE COMPOUNDS” (Inflazome Limited, priority 2017, published 2020)
